Columns and labels:
PPAR-β/δ = test: Transactivation of over-expressed PPAR-β/δ, luciferase reporter in porcine RPE cells; type: cell-based, pig; conditions: for transactivation of over-expressed PPAR-β/δ by the compound alone: vs DMSO control, A2E 20 μM, NBX increasing concentrations
Experimental: Then the effects of A2E on the endogenous PPAR transactivation in porcine RPE cells were investigated by means of a luciferase assay. […] The level of transactivation of PPAR-α, -β/δ, or -γ isoforms by A2E was determined by co-transfection of porcine RPE cells with a plasmid expressing each of the full-length PPAR isoforms and a plasmid expressing luciferase under the control of the PPAR response element. […] All usual chemicals, primers, and HX531 were from Sigma (St. Louis, MO, USA). Reagents for cell culture, transfection and quantitative RT-PCR were from Thermo Fisher Scientific (Waltham, MA, USA). RNA extraction NucleoSpin® RNA kit was from Macherey Nagel (Düren, Germany). ECL prime and PVDF membrane were from Amersham GE Healthcare (Buckinghamshire, UK). Primary antibodies against the following proteins were used: GAPDH (Santa Cruz Biotechnology, Inc, Dallas, TX, USA); pAKT, AKT, pERK and ERK (Cell Signaling, Danvers, MA, USA). Secondary antibodies were from Jackson ImmunoResearch (Cambridgeshire, UK). […] Cignal Pathway Reporter Assay Kits were from QIAGEN (Frederick, MD, USA). The Dual-Luciferase Reporter Assay System was purchased from Promega (Madison, WI, USA). pcDNA 3.1 (+)-PPARα and pcDNA 3.1 (+)-PPARβ/δ (pig sequence) were purchased from Genscript (Piscataway, NJ, USA). pCMV6-XL4-PPARγ (human sequence) was purchased from Origene (Rockville, MD, USA).
(§1) After one week in culture, cells were trypsinized and transferred to a 96-well plate at a density of 6 × 10^4 cells/cm^2 in DMEM2%FCS. The next day, cells were transfected using the Cignal Reporter Assay Kits for PPAR, RXR, AP-1 and NF-κB, according to the manufacturer’s specifications. To measure the specific activation of PPAR isoforms, cells were also co-transfected with PPAR-α, PPAR-β/δ or PPAR-γ expression vectors. Transfection was performed with Lipofectamine and Plus Reagent in serum-free medium. 3 h after the transfection, the medium was replaced and treatments with the molecules to assay were performed. Luciferase activity was measured the next day using the Dual-Luciferase Reporter Assay System. The measurements were performed with a luminometer (Infinite M1000 from Tecan, Mannedorf, Switzerland). Firefly: Renilla activity ratios were calculated for each condition and ratios from transcription factor-responsive reporter transfections were divided by ratios from negative control transfections to obtain relative luciferase unit, as described by the manufacturer. At least 3 independent transfections were performed in triplicate for each condition.

NF-κB = NF-κB transactivation, luciferase reporter in porcine RPE cells; type: cell-based; conditions: A2E 20 μM, T007907 10 μM
Experimental: (§2) Pig eyes were obtained from a local slaughterhouse and transported to the laboratory in ice-cold Ringer solution. After removal of the anterior segment of the eye, the vitreous and neural retina was separated from the RPE and removed. The eyecup was washed twice with phosphate buffer saline (PBS), filled with trypsin (0.25% in PBS) and incubated at 37°C for 1.5 h. RPE cells were harvested by gently pipetting, centrifuged to remove trypsin and re-suspended in Dulbecco’s Modified Eagle Medium (DMEM) supplemented with 20% (v/v) foetal-calf serum (DMEM20%FCS) and 0.1% gentamycin. Cells were seeded into 60 mm diameter Petri dishes, cultured in an atmosphere of 5% CO2/95% air at 37°C, and supplied with fresh medium after 24 hours and 4 days in vitro. For experiments aimed at measuring mRNA or protein expression in RPE, cells were trypsinized after one week in culture and transferred to 24-well or 6-well plates at a density of 1.5 × 10^5 cells/cm^2 in DMEM2%FCS. Norbixin or agonists were added to the medium 24 h after seeding, and antagonists were added to the medium 24 h later. A2E treatment was performed during 19 h before cellular sample preparation. All the drugs used in these experiments were prepared as stock solutions in DMSO.
as §1

IL-6 = IL-6 mRNA expression by quantitative RT-PCR in porcine RPE cells; type: cell-based; conditions: T007907 10 μM
Experimental: as §2
Total RNA was extracted using the NucleoSpin® RNA kit according to manufacturer’s instructions. RT of 500 ng of RNA was performed using the SuperScript III Reverse Transcriptase following the manufacturer’s instructions. Five ng of cDNA were amplified using the SYBR GREEN real-time PCR method. PCR primers for target genes and housekeeping gene GAPDH were designed using Primer3Plus Bioinformatic software (Table 2). The RT-PCR using the StepOne Plus (Life Technologies, Carlsbad, CA, USA) consisted of incubation at 50°C for 5 min followed by 40 cycles of 95°C for 15 s and of 60°C for 1 min. The reaction was completed by a melt curve stage at 95°C for 15 s, 60°C for 1 min, 95°C for 15 s and a final step at 60°C for 15 s. The relative mRNA expression was calculated using the comparative threshold method (Ct-method) with GAPDH for normalization. All experimental conditions were processed in triplicate and each experiment was done at least 3 times.

PPAR = test: Endogenous PPAR transactivation, luciferase reporter in primary porcine RPE cells; type: cell-based
Experimental: as §2, §1

RXR-α = target: T1, RXR-α (Homo sapiens, UniProt P19793); test: Competition binding to RXR-α against [3H]9-cis-retinoic acid (Eurofins Cerep); conditions: for IC50 / Kd: competition with [3H]9-cis-retinoic acid
T1 construct: Eurofins Cerep (contract laboratory that ran the assay)
T1 sequence (P19793 1-462): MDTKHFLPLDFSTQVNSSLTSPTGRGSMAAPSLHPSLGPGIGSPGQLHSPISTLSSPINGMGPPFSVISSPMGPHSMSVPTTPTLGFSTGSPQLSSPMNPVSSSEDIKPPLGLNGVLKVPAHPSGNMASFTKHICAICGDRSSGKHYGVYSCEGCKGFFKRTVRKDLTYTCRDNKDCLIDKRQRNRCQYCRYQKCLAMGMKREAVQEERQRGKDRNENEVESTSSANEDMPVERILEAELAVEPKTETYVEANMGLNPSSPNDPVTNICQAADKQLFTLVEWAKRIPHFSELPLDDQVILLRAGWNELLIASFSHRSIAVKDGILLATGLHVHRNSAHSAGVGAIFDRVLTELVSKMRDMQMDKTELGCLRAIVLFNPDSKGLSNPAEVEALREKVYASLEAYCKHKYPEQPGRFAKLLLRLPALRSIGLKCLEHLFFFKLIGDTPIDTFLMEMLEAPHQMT
Experimental: To confirm this hypothesis, we tested by competition experiments whether A2E and norbixin could bind to RXR-α. […] In similar transactivation experiments, we tested the activity of norbixin alone or added to A2E on RXR transactivation.
Binding studies of A2E and norbixin to RXR-α and PPAR-α and γ were performed in vitro by an external laboratory (Eurofins Cerep, Celle L’Evescault, France) through competition experiments between A2E or norbixin and [^3H]9-cis-retinoic acid as the natural ligand of RXR-α, [^3H]GW7647 an agonist of PPAR-α and [^3H]Rosiglitazone an agonist of PPAR-γ.

| SMILES | effect on over-expressed PPAR-β/δ transactivation induced by A2E (PPAR-β/δ; A2E 20 μM + NBX 20 μM) | inhibition of PPAR-β/δ transactivation induced by GW0742 (PPAR-β/δ; GW0742 at 1 nM, NBX 20 μM) | transactivation of over-expressed PPAR-β/δ by the compound alone (PPAR-β/δ) | inhibition of NF-κB transactivation induced by A2E (NF-κB; NBX 20 μM, HX531 5 μM) | reduction of IL-6 mRNA expression induced by A2E (IL-6; NBX 20 μM with A2E 30 μM, MK886 1 μM, GSK3787 1 μM, HX531 5 μM with A2E 20 μM) | inhibition of endogenous PPAR transactivation induced by A2E (PPAR; A2E 20 μM, NBX 20 μM, HX531 5 μM (HX531 effect not significant)) | effect of the compound alone on endogenous PPAR transactivation (PPAR; NBX 20 μM, no A2E) | IC50 (RXR-α) | Kd (RXR-α) | effect of the compound alone on NF-κB transactivation (NF-κB; vs DMSO control) | effect of the compound alone on IL-6 mRNA expression (IL-6; vs DMSO control) | minimal required concentration to transactivate all PPARs (endogenous) (PPAR; dose-response, porcine RPE cells) | binding affinity of A2E for RXR-α relative to norbixin (higher) (RXR-α; ratio of KDs) |
| --- | --- | --- | --- | --- | --- | --- | --- | --- | --- | --- | --- | --- | --- |
| CC(/C=C/C=C(C)/C=C/C(=O)O)=C\C=C\C=C(C)\C=C\C=C(C)\C=C\C(=O)O (stereo in doubt) [norbixin, 9’-cis-norbixin] | fully abolished | did not inhibit significantly | did not demonstrate any transactivation activity | 73% | 145% | 52% | did not inhibit | 65 µM | 46 µM | – | – | – | – |
| CC(C=CC1=C(C)CCCC1(C)C)=CC=CC(C)=Cc1cc(C=CC=C(C)C=CC2=C(C)CCCC2(C)C)cc[n+]1CCO [A2E, N-retinylidene-N-retinylethanolamine] | – | – | induced the transactivation | – | – | – | – | 6.1 µM | 4.3 µM | induces the transactivation | induces the expression | 20 µM | 10 fold |

From publication PMC8507260, “A2E-induced inflammation and angiogenesis in RPE cells in vitro are modulated by PPAR-α, -β/δ, -γ, and RXR antagonists and by norbixin” (Aging (Albany NY), 2021)
